# Measurements reported in the SangsterLogP compilation.
# How the values were obtained:
# [1] = method code SF-HPLC, from DOI: 10.1161/01.res.55.4.513, PMID: 6478555
# [2] = method code SF-AS, from DOI: 10.1016/0005-2736(69)90054-6, PMID: 5349616; settings: pH 7.4
# [3] = method code SF-NMR, from DOI: 10.1016/j.jpba.2012.12.010, PMID: 23298914
# [4] = method code SF, from DOI: 10.1021/js9700917, PMID: 9452977; settings: pH 5.5
# [5] = method code SF-GLC, from DOI: 10.1007/bf00212402, PMID: 7663085
# [6] = method code SF, from DOI: 10.1016/0378-5173(86)90155-9; settings: pH 7.0
# [7] = not given; remark: listed apart in the source
# [8] = method code SF, from DOI: 10.1248/yakushi1947.93.11_1452, PMID: 4273378
# [9] = method code SF-HPLC, from DOI: 10.1177/074823378700300403, PMID: 3433285
# [10] = not given; remark: listed apart in the source
# [11] = not given; remark: listed apart in the source
# [12] = not given; remark: listed apart in the source
# [13] = method code SF-GLC, from DOI: 10.1021/es60128a001
# [14] = not given; remark: listed apart in the source
# [15] = method code SF-AS, from DOI: 10.1111/j.2042-7158.1980.tb13082.x, PMID: 6110743
# [16] = method code SF-HPLC, from DOI: 10.1021/jm9509197, PMID: 8648601; settings: pH 7.4
# [17] = method code SF-AS, from DOI: 10.1248/cpb.15.1705, PMID: 5583828; settings: pH 1.1
# [18] = not given; remark: listed apart in the source
# [19] = not given; remark: listed apart in the source
# [20] = method code SF, from DOI: 10.1038/bjc.1982.190, PMID: 7150475; settings: pH 7.4
# [21] = not given; remark: listed apart in the source
# [22] = not given; remark: listed apart in the source
# [23] = method code SF-RC, from DOI: 10.1002/jlcr.2580210110; settings: pH 7.4
# [24] = method code SF, from PMID: 2704; settings: pH 1.0
# [25] = method code SF, from DOI: 10.1016/s0378-5173(98)00231-2
# [26] = method code SF-GLC, from DOI: 10.1016/j.chemosphere.2005.05.003, PMID: 15967478
# [27] = method code SF-AS, from DOI: 10.1016/0021-9673(91)80064-n
# [28] = method code SF-AS, from DOI: 10.1016/0006-2952(75)90156-2, PMID: 235934; settings: pH 7.4
# [29] = method code SF-AS, from DOI: 10.1135/cccc19822514; settings: pH 3.5
# [30] = not given; remark: listed apart in the source
# [31] = method code SF-AS/HPLC, from Ellington, J. J. (1988). Octanol/water partition coefficients for evaluation of hazardous waste land disposal: Selected chemicals. US Environmental Protection Agency, Environmental Research …
# [32] = method code SF-AS, from DOI: 10.1021/bi00405a042
# [33] = not given; remark: listed apart in the source
# [34] = not given; remark: listed apart in the source
# [35] = method code SF-AS, from DOI: 10.1039/ft9959100995
# [36] = not given; remark: listed apart in the source
# [37] = not given; remark: listed apart in the source
# [38] = method code SF-AS, from DOI: 10.1080/09553007214550551, PMID: 4537457
smiles,measurement,setting,value
Cc1cccc(C)c1NC(=O)CN,logP,[1],0.41
CC(=O)OC[C@H]1O[C@@H](n2cc(C)c(=O)[nH]c2=O)C[C@@H]1O,logP,,-0.25
CCNCC(=O)Nc1c(C)cccc1C,logP,[1],1.32
Cc1cc2ccccc2n1C,logD,[2],2.82
COC(=O)[C@@H](N)Cc1cc(I)c(O)c(I)c1,logD,[3]; pH 6.7,0.95
NS(=O)(=O)c1ncncc1-c1ccccc1,logD,[4],0.5
ClC1=C(Cl)C2(Cl)C3C(Cl)C(Cl)(Cl)CC3C1(Cl)C2(Cl)Cl (stereo unspecified),logP,[5],6.06
CS(=O)CCCOc1ccc([N+](=O)[O-])cc1 (stereo unspecified),logD,[6],0.93
O=NN(CCCl)C(=O)NC1CCCC(O)C1 (stereo unspecified),logP,[7],1.28
CCCCNC(=O)c1cccnc1,logP,[8],0.9
CCN(CC)C(=O)c1ccccc1C,logP,[9],2.02
CON=C(C#N)C(=O)NC(CCS(C)(=O)=O)C(=O)O (stereo unspecified),logP,[10],-0.52
COC(=O)c1ccccc1C(=O)OC,logP,[11],1.9
Nc1ccc2c(S(=O)(=O)O)cc(S(=O)(=O)O)cc2c1,logP,[12],-1.6
CCOP(=S)(OCC)Oc1ccc(Cl)cc1Cl,logP,[13],5.14
C=Cc1ccc(C=C)cc1,logP,[14],3.2
CCCOc1cccc(O)c1,logP,[15],2.59
Nc1c2ncn(C3OC(CO)CC3F)c2nc[n+]1[O-] (stereo unspecified),logD,[16],-0.98
ClC1=C(Cl)C2(Cl)C3CC=CC3C1(Cl)C2(Cl)Cl (stereo unspecified),logP,[5],5.57
CCC1(CCC(C)C)C(=O)NC(=O)NC1=O,logD,[17],2.07
Clc1cc2c(Cl)cc(Cl)c(Cl)c2c(Cl)c1Cl,logP,[18],6.87
CCCOC(=O)c1ccccc1Cl,logP,[19],3.45
CCCCOCC(O)Cn1ccnc1[N+](=O)[O-] (stereo unspecified),logD,[20],1.11
COC(=O)[C@@H](N)Cc1ccc(O)c(I)c1,logD,[3]; pH 7.7,0.26
CCSc1nnc(C(C)(C)C)c(=O)n1N,logP,[21],2.08
CCCCCOc1cccc(O)c1,logP,[15],3.63
CC(C)(N)Cc1ccc(Cl)cc1,logP,[22],2.6
FC(F)(c1ccccc1)C(F)(F)c1ccccc1,logD,[23],5
Cc1nc(NS(=O)(=O)c2ccc(N)cc2)oc1C,logD,[4],0.2
COc1ccc(C=O)cc1C,logD,[24],2.23
OCCCCc1ccccc1,logP,[25],2.33
O=[N+]([O-])c1ncnc2c1ncn2C1OC(CO)CC1F (stereo unspecified),logD,[16],-0.4
C=C1CCC2CC1C2(C)C (stereo unspecified),logP,[26],4.43
C=CC(=O)NCCN1CCOCC1,logP,[27],-0.55
CC(C)Oc1ccc([N+](=O)[O-])cc1,logD,[28],2.8
CC(C(=O)O)c1ccccc1 (stereo unspecified),logD,[29],1.8
CCOP(=S)(OCC)SCn1c(=O)oc2cc(Cl)ccc21,logP,[13],4.3
FC1(F)C(F)(F)C(F)(F)C2(F)C(F)(F)C(F)(F)C(F)(F)C(F)(F)C2(F)C1(F)F (stereo unspecified),logP,[30],6
Cc1cn([C@H]2C[C@H](N=[N+]=[N-])[C@@H](CO)O2)c(=O)[nH]c1=O,logP,,-0.09
CC(C)N(C(=O)SC/C(Cl)=C/Cl)C(C)C,logP,[31],4.49
CCN(CC)C(=O)c1cccnc1,logP,[8],0.86
OCCCCCCCc1ccccc1,logP,[25],3.59
FC12CC3CC(CC(C3)C1)C2,logD,[23],5.7
C#CC(C)(C)NC(=O)c1cc(Cl)cc(Cl)c1,logP,[31],3.43
CC(=O)NCCc1ccccc1,logP,[32],1.19
COP(=S)(OC)SCn1nnc2ccccc2c1=O,logP,[9],2.43
CCNc1nc(Cl)nc(NC(C)CC)n1 (stereo unspecified),logP,[33],3.02
OCCC(F)(F)C(F)(F)C(F)(F)C(F)(F)C(F)(F)C(F)(F)C(F)(F)C(F)(F)C(F)(F)C(F)(F)F,logP,[34],7.57
O=C(C(=O)c1ccc(Cl)cc1)c1ccccc1,logP,[14],2.6
CCOC(=O)c1cccc(O)c1,logP,[19],2.47
COC(=O)COc1ccccc1,logD,[24],1.41
O=NN(CCCl)C(=O)NC1CCCCC1O (stereo unspecified),logP,[7],1.6
CNC(=O)N(C)c1nc2ccccc2s1,logP,[33],2.38
O=C(NCc1ccc(O)cc1)c1ccccc1,logD,[6],1.87
CC(=O)Nc1ncc2ncn(COCCO)c2n1,logP,[35],-1.33
CCCCOc1ccc([N+](=O)[O-])cc1,logD,[28],3.5
Cc1cc(Cl)ccc1OC(C)C(=O)O (stereo unspecified),logP,[36],2.95
O=S(=O)(O)c1ccc(-c2ccc(S(=O)(=O)O)cc2)cc1,logP,[12],0.3
ClC1=C(Cl)C2(Cl)C3C4OC4C(Cl)C3C1(Cl)C2(Cl)Cl (stereo unspecified),logP,[37],5.4
c1ccc(Nc2ccc3ccccc3c2)cc1,logP,[37],4.38
CON=C(C#N)C(=O)N[C@@H](CCSC)C(=O)O,logP,[10],0.86
c1ccc2c(c1)[nH]c1ccccc12,logD,[2],3.29
OCCC(F)(F)C(F)(F)C(F)(F)C(F)(F)C(F)(F)C(F)(F)C(F)(F)C(F)(F)F,logP,[34],6.14
C=CCC1(CC)C(=O)NC(=O)NC1=O,logD,[17],0.95
Cc1cc(Cl)ccc1OCCCC(=O)O,logP,[36],3.28
C=CC(=O)NCCCN1CCOCC1,logP,[27],-0.52
Clc1cc2c(Cl)c(Cl)c(Cl)c(Cl)c2c(Cl)c1Cl,logP,[18],7.33
C=C1C=CC(C(C)C)CC1 (stereo unspecified),logP,[26],4.59
FC(F)(F)C1(F)C(F)(F)C(F)(F)C(F)(N2C(F)(F)C(F)(F)C(F)(F)C(F)(F)C2(F)F)C(F)(F)C1(F)F (stereo unspecified),logP,[30],7
CC(=O)NCCc1c[nH]c2ccccc12,logP,[32],1.41
O=C(O)CCc1ccccc1,logD,[29],1.91
CN(C(=O)NC(C)(C)c1ccccc1)c1ccccc1,logP,[21],3.01
CC(C)(N)Cc1ccccc1,logP,[22],1.9
CC(=O)c1ccc(C)cc1,logP,[38],2.28
CC(=O)OCCOCn1cnc2c(=O)[nH]c(N)nc21,logP,[35],-1.07
CCCCCCOC(=O)c1ccccc1C(=O)OCCCCCC,logP,[11],5.8
